Test results: patent publication US7728155B2, “Dihydrobenzofuranyl alkanamines and methods for using same as cns agents” (Wyeth LLC, priority 2003, dated 2010)
Where a name gives a salt, the structure may show the parent alone.

Molecular target: T1, human 5-hydroxytryptamine-2C (h5-HT2C) receptor (Homo sapiens, UniProt P28335)
T1 construct: expressed in transfected cells; host or cells: CHO (Chinese Hamster Ovary) cells; membranes
T1 sequence (P28335 33-458): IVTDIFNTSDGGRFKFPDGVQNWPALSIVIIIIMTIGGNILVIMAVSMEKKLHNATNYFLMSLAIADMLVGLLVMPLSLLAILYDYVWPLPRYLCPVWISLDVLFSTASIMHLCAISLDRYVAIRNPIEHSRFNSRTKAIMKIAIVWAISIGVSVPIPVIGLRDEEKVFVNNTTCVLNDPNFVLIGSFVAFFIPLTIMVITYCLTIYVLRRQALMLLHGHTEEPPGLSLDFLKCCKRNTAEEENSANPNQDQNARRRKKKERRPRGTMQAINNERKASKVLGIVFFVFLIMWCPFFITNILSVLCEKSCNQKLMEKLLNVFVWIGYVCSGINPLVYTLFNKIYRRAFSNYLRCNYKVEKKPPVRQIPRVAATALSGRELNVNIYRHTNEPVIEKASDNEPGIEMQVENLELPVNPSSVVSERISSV
Assay: [125I]DOI binding affinity at h5-HT2C receptor, CHO cell membranes
Conditions: [125I]DOI displacement, CHO membranes expressing h5-HT2C; read-out: 5-HT2C Affinity Ki

Row | Ki | SMILES
1 | 11 nM | CNCC1Cc2c(Cl)cc3c(c2O1)CCC3 (racemic) [Example 28, (±)-1-(4-chloro-3,6,7,8-tetrahydro-2H-indeno[4,5-b]furan-2-yl)-N-methylmethanamine]

System: not given
Assay: not given
Conditions: not given

Row | melting point | SMILES
2 | > 220 °C (dec.) | NCC1Cc2ccc3c(c2O1)CCCC3 (racemic) (as salt: hydrochloride) [Example 4, (±)-1-(2,3,6,7,8,9-hexahydronaphtho[1,2-b]furan-2-yl)methanamine]
3 | 270 °C (dec.) | NCC1Cc2cc(Cl)c3c(c2O1)CCC3 (racemic) (as salt: hydrochloride) [Example 29, (±)-1-(5-chloro-3,6,7,8-tetrahydro-2H-indeno[4,5-b]furan-2-yl)methanamine]
4 | > 230 °C (dec.) | NCC1Cc2ccc3c(c2O1)CCC3 (racemic) (as salt: hydrochloride) [Example 1, (±)-1-(3,6,7,8-tetrahydro-2H-indeno[4,5-b]furan-2-yl)methanamine]
5 | > 220 °C | COc1cc2c(c3c1C1CCC3CC1)OC(CN)C2 (single isomer, unassigned; (+)) (as salt: hydrochloride) [Example 20, (+)-1-(5-methoxy-2,3,6,7,8,9-hexahydro-6,9-ethanonaphtho[1,2-b]furan-2-yl)methanamine]
6 | > 220 °C | Cc1cc2c(c3c1CCC3)OC(CN)C2 (single isomer, unassigned; (+)) (as salt: hydrochloride) [Example 8, (+)-1-(5-methyl-3,6,7,8-tetrahydro-2H-indeno[4,5-b]furan-2-yl)methanamine]
7 | 269 to 271 °C | NCC1Cc2cc(Cl)c3ccccc3c2O1 (racemic) (as salt: hydrochloride) [Example 23, (±)-1-(5-chloro-2,3-dihydronaphtho[1,2-b]furan-2-yl)methanamine]
8 | 224 to 226 °C | CNCC1Cc2cc(Cl)c3ccccc3c2O1 (racemic) (as salt: hydrochloride) [Example 24, (±)-1-(5-chloro-2,3-dihydronaphtho[1,2-b]furan-2-yl)-N-methylmethanamine]
9 | > 210 °C | COc1cc2c(c3c1C1CCC3CC1)OC(CN)C2 (racemic) (as salt: hydrochloride) [Example 19, (±)-1-(5-methoxy-2,3,6,7,8,9-hexahydro-6,9-ethanonaphtho[1,2-b]furan-2-yl)methanamine]
10 | 58 to 60 °C | CNCC1Cc2c(Cl)cc3c(c2O1)CCC3 (racemic) [Example 28, (±)-1-(4-chloro-3,6,7,8-tetrahydro-2H-indeno[4,5-b]furan-2-yl)-N-methylmethanamine]
11 | > 330 °C | NCC1Cc2cc(Cl)c3c(c2O1)CCC3 (single isomer, unassigned; (-)) (as salt: hydrobromid) [Example 30, (−)-1-(5-chloro-3,6,7,8-tetrahydro-2H-indeno[4,5-b]furan-2-yl)methanamine]
12 | > 150 °C (dec.) | COc1cc2c(c3c1C1CCC3C1)OC(CN)C2 (single isomer, unassigned) (as salt: hydrochloride) [Example 17, (9-methoxy-4-oxatetracyclo[9.2.1.0^2,10.0^3,7]tetradeca-2,7,9-trien-5-yl)methylamine]
13 | 251 to 254 °C | NCC1Cc2c(Cl)cc3c(c2O1)CCC3 (racemic) (as salt: hydrochloride) [Example 25, (±)-1-(4-chloro-3,6,7,8-tetrahydro-2H-indeno[4,5-b]furan-2-yl)methanamine]
14 | > 225 °C | NCC1Cc2c(ccc3c2CCCC3)O1 (racemic) (as salt: hydrochloride) [Example 14, (±)-1-(1,2,6,7,8,9-hexahydronaphtho[2,1-b]furan-2-yl)methanamine]
15 | > 180 °C (dec.) | COc1cc2c(c3c1C1CCC3C1)OC(CN)C2 (single isomer, unassigned) (as salt: hydrochloride) [Example 16, (9-methoxy-4-oxatetracyclo[9.2.1.0^2,10.0^3,7]tetradeca-2,7,9-trien-5-yl)methylamine]
16 | > 225 °C | NCC1Cc2cc3c(cc2O1)CCCC3 (racemic) (as salt: hydrochloride) [Example 13, (±)-1-(2,3,5,6,7,8-hexahydronaphtho[2,3-b]furan-2-yl)methanamine]
17 | 265 to 268 °C | NCC1Cc2c(Cl)cc3c(c2O1)CCC3 (single isomer, unassigned; (-)) (as salt: hydrochloride) [Example 26, (−)-1-(4-chloro-3,6,7,8-tetrahydro-2H-indeno[4,5-b]furan-2-yl)methanamine]
18 | > 200 °C (dec.) | Cc1cc2c(c3c1CCC3)OC(CN)C2 (racemic) (as salt: hydrochloride) [Example 7, (±)-1-(5-methyl-3,6,7,8-tetrahydro-2H-indeno[4,5-b]furan-2-yl)methanamine]

Row | SMILES | melting point
19 | C[C@@H](N)[C@H]1Cc2ccc3c(c2O1)CCC3 (relative stereo) (as salt: hydrochloride) [Example 22, (2R*)-1-[(2R*)-3,6,7,8-tetrahydro-2H-indeno[4,5-b]furan-2-yl]ethylamine] | > 250 °C
